Patent US8815813B2, “Methods for treating immune-mediated Dengue Fever infections and antibody-dependent enhancement of Dengue Fever infections, including Dengue Hemorrhagic Fever and Dengue Shock Syndrome” (priority 2008, dated 2014)
Where two headings read alike, the source gives them in different places. No end group written: not given here.

Legend:
[1] = tested on: FcγIIb; assay type: binding
[2] = tested on: FcγIIIa; assay type: binding
[3] = tested on: human C1q; assay: Reverse ELISA: inhibition of PAP immune complex binding to C1q coated plates
[4] = tested on: Fcγ1; assay type: binding
[5] = tested on: FcγIIa (H131 allele); assay type: binding
[6] = tested on: FcγIIb/c; assay type: binding
[7] = tested on: FcγIIIb (NA2); assay type: binding
Chain of FcγIIIb (NA2) (O75015 17-200): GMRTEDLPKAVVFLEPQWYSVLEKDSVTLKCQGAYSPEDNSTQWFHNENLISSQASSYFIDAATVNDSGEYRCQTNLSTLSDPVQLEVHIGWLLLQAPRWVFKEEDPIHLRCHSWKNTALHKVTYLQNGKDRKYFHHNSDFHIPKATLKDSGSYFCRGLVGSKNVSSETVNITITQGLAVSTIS

[8] = tested on: recombinant human FcγIIa; assay type: binding
Protocol: The results of 1:250 and 1:500 serial dilutions (ADE was most evident at serum dilutions of 1:250 to 1:500) of the DENV-IgG-IC were tested against inhibition of DENV-IgG-IC binding to huFcγRIIa coated microtiter wells. Results using huFcγRIIa coated wells with either a 1:250 dilution of DENV-IgG-IC with no inhibitor, a 1:250 dilution of DENV-IgG-IC with SEQ ID NO:20, a 1:500 dilution of DENV-IgG-IC with no inhibitor, and a 1:500 dilution of DENV-IgG-IC with SEQ ID NO:20 are shown in Table 5.

[9] = tested on: Dengue Virus recombinant NS1; assay type: binding; settings: summary of Table 6
Protocol: PAP IC were incubated with either no peptide or with SEQ ID NO:20 for one hour.

[10] = tested on: recombinant TNF-α; assay type: binding
[11] = tested on: FcγIIa (R131 allele); assay: Reverse ELISA: inhibition of PAP-IC binding to FcγIIa (R131 allele) coated plates; settings: PAP pre-incubated with peptide 1 h; positive control 1.599

Row | Substance | OD405 FcγIIb [1] | OD405 FcγIIIa [2] | inhibition of C1q binding (ranking in words) [3] | also measured
1 | APPCAFHLGELVWCT (cysteine pairing not given here) [SEQ ID NO:18] | 0.380 | 0.880 |  | 
2 | APPCARHLGELVWCT (cysteine pairing not given here) [SEQ ID NO:16] | 0.768 | 0.709 | next best result | 
3 | APPCAWHLGELVWCT (cysteine pairing not given here) [SEQ ID NO:14] | 0.562 | 0.530 |  | 
4 | Ala-Pro-Pro-Asp-Cys-Ala-Trp-His-Leu-Gly-Glu-Leu-Val-Trp-Cys-Thr [SEQ ID NO:20] | 0.496 | 0.670 | greatest inhibition of C1q binding | % inhibition of IC binding, Fcγ1 [4]: 89%; Fcγ1 (read at 405 nm) [4]: 0.264; FcγIIa* (H131 allele) (read at 405 nm) [5]: 0.209; FcγIIb/c (read at 405 nm) [6]: 0.266; % inhibition of IC binding, FcγIIIb (NA2) [7]: 91%; FcγIIIb (NA2) (read at 405 nm) [7]: 0.266; DENV-IgG-IC binding to huFcγRIIa coated wells (ELISA reading) ([8]; 1:250 dilution of DENV2 (16681)-DENV convalescent IgG-IC, no peptide control 2.885): 0.265; DENV-IgG-IC binding to huFcγRIIa coated wells (ELISA reading) ([8]; 1:500 dilution of DENV2 (16681)-DENV convalescent IgG-IC, no peptide control 2.362): 0.289; inhibition of DENV2-anti-DENV convalescent IgG-IC binding to FcγIIa coated plates (in words) ([8]; summary of Table 5): marked ability to inhibit binding; inhibition of PAP-IC binding to recombinant DENV NS1 coated plates (in words) [9]: marked ability to inhibit the binding; OD405 [10]: 0.086; inhibition of PAP-IC binding to recombinant TNFα coated plates (in words) [10]: marked ability to inhibit the binding
5 | Asp-Cys-Ala-Phe-His-Leu-Gly-Glu-Leu-Val-Trp-Cys-Thr [SEQ ID NO:3] | 0.510 | 0.810 |  | 
6 | Asp-Cys-Ala-Trp-His-Leu-Gly-Glu-Leu-Val-Trp-Cys-Thr [SEQ ID NO:2] | 0.532 | 0.741 |  | OD405 FcγIIa (R131 allele) [11]: 0.561
